We go through 22 compounds from PubChem BioAssay (NCI).

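These data come from cells grown in 96-well plates and exposed to compound for 48 hours at five concentrations. Here, GI50 denotes the concentration required for 50% inhibition of growth. TGI: concentration producing complete growth inhibition.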

Holding throughout (assay): NCI-60 cell line screen, 48 h
The test system of test [1] is HOP-62 NSCLC.
For test [2], the system named is SK-OV-3 ovarian.
For test [3], the system named is UACC-62 melanoma.
The test system of test [4] is CCRF-CEM leukemia.
Test [5] concerns NCI-H226 lung.
Test [6] concerns OVCAR-5 ovarian.
Test [7] has as its system IGROV1 ovarian.
Test [8] relates to NCI/ADR-RES ovarian.
Test [9] has as its system UO-31 renal.
The subject of test [10] is SR leukemia.

On to `C(#Cc1ccccc1C#Cc1cccs1)c1cccs1`, for which the GI50 in test [1] was 77.3 µM; in test [2] it was 33.9 µM; in test [3], 43.4 µM; in [4], 31.9 µM; in [5] it was 39.2 µM; in test [6], 25.6 µM. For the same compound, the GI50 in test [7] is more than 100 µM; in [8], 25.2 µM; in test [9], 35.8 µM. The TGI in [1] is more than 100 µM; in [2], more than 100 µM; in [3] it was more than 100 µM; in test [4] it was more than 100 µM; in [5], more than 100 µM; in test [6], 83.2 µM. Further, the TGI in test [7], in [8] and in [9] was more than 100 µM in each case.
As for `CCOC(=O)N1CCN(C=S)CC1`, the TGI in test [1], in test [2], in [3], in test [4], in test [6] and in test [7] was more than 100 µM throughout. In addition, the TGI in test [10] and in test [9] was more than 100 µM in each case.
Regarding `Cc1cc(=O)n(-c2ccccc2C)c(C)n1`, the TGI in [1], in test [2], in test [3], in [4], in test [5] and in [6] was more than 100 µM in each case. Also, the TGI in test [7] and in test [9] was more than 100 µM in each case.
Regarding `CCCCOC(=O)C1C2CCC(O2)C1C(=O)OCCCC` (configuration not stated), the TGI in [1], in test [2], in test [3], in test [4], in test [5] and in test [6] was more than 100 µM each time. For the same compound, the TGI in [7] and in [9] was more than 100 µM in each case.
Regarding `O=C1c2ccccc2C(O)(O)C1(O)C1(O)C(=O)c2ccccc2C1(O)O` (configuration not stated), the TGI in test [1] is 54.1 µM; in test [2], more than 100 µM; in test [3] it was more than 100 µM; in [4], 44.7 µM; in [5] it was more than 100 µM; in test [6] it was more than 100 µM. The TGI is more than 100 µM in [7], more than 100 µM in test [8] and 48.7 µM in [9].
`CC(=O)CC(=O)OC1CC(C)CCC1C(C)C` (configuration not stated): the TGI in [1] was more than 100 µM; in [2], more than 100 µM; in test [3], more than 100 µM; in test [4], 44 µM; in [6] it was more than 100 µM; in test [7], more than 100 µM. This compound registered a TGI in test [9] of more than 100 µM.
For the compound `COC(=O)/C(C)=C(/CCC1(C)OCCO1)O[Si](C)(C)C`, the TGI in test [1], in test [2], in [3], in test [4], in test [6] and in [7] was more than 100 µM each time. The compound further came in with a TGI in [9] of more than 100 µM.
With `Cc1ccc(S(=O)(=O)N/N=C/c2c(O)ccc3ccccc23)cc1`, the TGI was more than 100 µM in test [1]; 84.6 µM in [2]; 49.4 µM in [3]; more than 100 µM in test [4]; 88.2 µM in [6]; 84.5 µM in [7]. The TGI in test [8] and in [9] was more than 100 µM each time.
Regarding `COc1cc(NC(C)CCCNC2CN3CCC2CC3)c2ncccc2c1` (configuration not stated), the GI50 in [1] is 11.9 µM; in test [2] it was 15.2 µM; in test [3], 3.2 µM; in test [4] it was 19 µM; in test [5], 13.6 µM; in test [6], 14.5 µM. For the same compound, the GI50 in test [7] is 11.5 µM; in test [8] it was 24.6 µM; in test [9], 13.7 µM. Also, the TGI in test [1] is 24.8 µM; in [2], 28.5 µM; in test [3], 10.5 µM; in test [4], more than 100 µM; in [5], 27.7 µM; in test [6], 28.3 µM. For the same compound, the TGI in test [7] was 31.2 µM; in test [8], more than 100 µM; in test [9], 32.6 µM.
With `CN(CCCn1c2c(c3ccccc3c1=O)C(=O)c1ccccc1-2)CCCn1c2c(c3ccccc3c1=O)C(=O)c1ccccc1-2`, the GI50 in test [2] is 5.45 µM; in test [3] it was 3.08 µM; in [5], 0.99 µM; in [6] it was 1.66 µM; in test [8], 1.05 µM; in test [9], 1.42 µM. Besides, the TGI in test [2] was 19.7 µM; in test [3], 45.3 µM; in test [5], more than 36.9 µM; in test [6] it was 3.59 µM; in test [8], 4.32 µM; in test [9], 6.26 µM.
Turning to `COC1CC(OS(=O)(=O)c2ccc([N+](=O)[O-])cc2)C(OC(=O)c2ccccc2)C(C)O1` (configuration not stated), the TGI in test [1], in test [3], in test [4], in test [6], in test [7] and in [10] was more than 100 µM throughout.
`COc1ccc(C2=CC(c3ccc4c(c3)OCO4)c3c(c4ccccc4oc3=O)O2)cc1OC` (configuration not stated): the TGI is more than 100 µM in [1]; more than 100 µM in test [2]; more than 100 µM in test [3]; more than 100 µM in [4]; 6.72 µM in test [5]; more than 100 µM in test [6]. In addition, the TGI in test [7], in test [8] and in test [9] was more than 100 µM in each case.
For the compound `O=C([CH-]C(=O)c1ccccc1)c1ccccc1.O=C([CH-]C(=O)c1ccccc1)c1ccccc1.[La+3].[OH-].[OH3+]`, the GI50 was 10.9 µM in [1]; 21.3 µM in test [2]; 14 µM in [3]; 1.67 µM in [5]; 65.8 µM in test [6]; 25.8 µM in test [7]. The GI50 in test [9] is 6.62 µM. For the same compound, the TGI in [1] is 41.9 µM; in test [2] it was 69.8 µM; in [3], 44.7 µM; in test [5] it was 17.7 µM; in [6] it was more than 100 µM; in test [7], more than 100 µM. For the same compound, the TGI in [9] worked out at 31.6 µM.
As to `COc1cc([N+](=O)[O-])c(OC)cc1-c1nc2sc(Cl)cn2c1/C(N)=N/C(=N)N`, the GI50 in test [1] is 6.32 µM; in test [2], 23.7 µM; in test [3], 15 µM; in test [5], 20.9 µM; in [6], 19.7 µM; in [7] it was 5.18 µM. In addition, the GI50 was 61.4 µM in test [8] and 26.2 µM in test [9]. Further, the TGI in test [1] was 17.3 µM; in [2], more than 62.1 µM; in test [3] it was 35.3 µM; in [5] it was 53.9 µM; in [6] it was 45.4 µM; in test [7], more than 54.6 µM. Further, the figures for the TGI in test [8] and in test [9] were more than 100 µM and more than 61.8 µM, respectively.
With `C=C(C)C(=O)O[C@H]1CC(=C)[C@@H]2C[C@H](O)[C@](O)(CCl)[C@@H]2[C@H]2OC(=O)C(=C)[C@@H]21`, the GI50 was 10.5 µM in [1]; 16.2 µM in test [2]; 3.26 µM in [3]; 1.57 µM in test [4]; 19.6 µM in test [5]; 14.8 µM in test [6]. Besides, the GI50 was 2.71 µM in test [7], 3.33 µM in test [8] and 2.73 µM in test [9]. Further, the TGI was 23.3 µM in test [1]; 30.2 µM in [2]; 11.4 µM in test [3]; 3.71 µM in [4]; 46.2 µM in [5]; 29.6 µM in test [6]. Further, the TGI in test [7] came to 10.4 µM; in [8] it was 13.2 µM; in [9], 9.27 µM.
Consider `COc1ccc(-c2nc(-c3nc4ccc(OC)cc4[nH]3)c3ccccn23)cc1`, for which the GI50 is 5.07 µM in test [1]; 36.1 µM in test [2]; 4.51 µM in test [3]; 2.53 µM in test [4]; 6.57 µM in test [5]; 11.4 µM in test [6]. The GI50 in test [7] was 2.7 µM; in [8], 3.86 µM; in [9], 2.47 µM. The TGI in test [1] was more than 100 µM; in test [2], more than 100 µM; in test [3] it was 22 µM; in [4] it was 26.8 µM; in [5], more than 100 µM; in test [6], more than 100 µM. Besides, the TGI was 6.98 µM in test [7], 57.7 µM in test [8] and 7.93 µM in [9].
With `Nc1ccnc(=O)[nH]1`, the TGI in test [1], in test [2], in test [3], in [4], in [5] and in [6] was more than 100 µM in each case. For the same compound, the TGI in test [7] and in [9] was more than 100 µM throughout.
For `COc1cc(C(=O)O[C@H](C(=O)NCCCCCNC(=O)[C@@H](OC(=O)c2cc(OC)cc3c(C)cccc23)[C@]2(C)CO2)[C@]2(C)CO2)c2cccc(C)c2c1`, the GI50 is less than 0.01 µM in [1]; 3.28 µM in test [2]; 0.53 µM in test [3]; 0.93 µM in [5]; 1.52 µM in [6]; 1.43 µM in [7]. Besides, the GI50 was 0.165 µM in test [8] and 2.24 µM in test [9]. The TGI in [1] is 0.157 µM; in [2], more than 30.1 µM; in [3], 1.08 µM; in test [5], 4.09 µM; in test [6], 5.61 µM; in [7] it was more than 100 µM. Besides, the TGI in test [8] was 0.584 µM; in test [9], more than 100 µM.
For `Cc1ccc2nc(NC(=O)C(=O)C(C#N)c3nc4ccccc4s3)sc2c1` (configuration not stated), the TGI in [1] was 31.9 µM; in test [2], more than 100 µM; in test [3], more than 100 µM; in test [5], 89.3 µM; in [6], more than 100 µM; in test [7], 51.8 µM. Further, in test [9], the TGI is more than 100 µM.
As for `CC(C)[C@H](N)C(=O)N1CCC[C@H]1B(O)O`, the GI50 in test [1], in test [2], in test [3], in test [4], in test [5] and in test [6] was more than 100 µM throughout. In addition, the GI50 in [7], in [8] and in test [9] was more than 100 µM in each case. The TGI in [1], in test [2], in test [3], in test [4], in test [5] and in [6] was more than 100 µM each time. Further, the TGI in [7], in [8] and in [9] was more than 100 µM throughout.
On to `C=C1C(=O)O[C@H]2[C@H]1CC/C(COC(=O)NCc1ccc(Cn3c(=O)sn(CCCl)c3=O)cc1)=C\CC[C@@]1(C)O[C@@H]21`, for which the GI50 is 16.3 µM in [1]; 16.1 µM in [2]; 1.86 µM in test [3]; 1.73 µM in test [4]; 17.2 µM in test [5]; 1.97 µM in [6]. In addition, the GI50 was 2.5 µM in test [7], 26.3 µM in test [8] and 1.65 µM in test [9]. Moreover, the TGI in test [1] worked out at 31.5 µM; in test [2] it was 29.7 µM; in test [3], 3.95 µM; in test [4] it was 7 µM; in [5] it was 37.3 µM; in [6], 4.19 µM. The TGI turned out to be 6.79 µM in test [7], 77.8 µM in [8] and 3.25 µM in [9].
Regarding `C[C@H]1[C@H](C)CC[C@]2(CO)CC[C@]3(C)C(=CC[C@@H]4[C@@]5(C)CCCNC(C)(C)[C@@H]5CC[C@]43C)[C@H]12`, the GI50 was 1.81 µM in [1]; 2.54 µM in [2]; 1.85 µM in test [3]; 1.74 µM in [4]; 1.69 µM in test [6]; 1.85 µM in test [7]. Also, the figures for the GI50 in test [8] and in [9] were 1.76 µM and 1.54 µM, respectively. Moreover, the TGI in [1] came to 3.43 µM; in test [2], 6.97 µM; in test [3], 3.35 µM; in [4], 3.93 µM; in test [6] it was 3.18 µM; in test [7] it was 3.72 µM. In addition, the results for the TGI in [8] and in test [9] were 3.47 µM and 2.99 µM, respectively.
